# From US20230263758A1, “COMPOSITIONS OF EDTA HAVING ACTIVITY AGAINST PLANKTONIC AND BIOFILM CELLS OF CLINICALLY RELEVANT PATHOGENS” (SterileCare Inc., priority 2022, published 2023)
# Columns and labels:
# [1] = tested on: E. coli SK2; assay: Checkerboard titration, FICI; type: cell-based, Escherichia coli; conditions: EDTA + ethanol checkerboard
# Method: (§1) A fourth composition and solution included tetrasodium EDTA with ethanol or chlorhexidine HCl. This fourth composition and solution were created using checkerboard titration methods using micro broth dilution in 96-well microtiter plates. The concentrations of antimicrobials used were based on previously determined MIC values. Briefly, 200 μL of two-fold dilutions of tetrasodium EDTA and ethanol or chlorhexidine HCl were prepared in MH or MH II broth with standardized cell suspension. […] Microtiter plates were incubated at 37° C. for 24 h, and the results were analyzed. Each test was performed in duplicate and included a growth control without adding any antimicrobials.
# [2] = tested on: 48-h old biofilms of bacterial and fungal test organisms; assay: Rapid biofilm eradication, 2-h exposure; type: cell-based; conditions: each agent alone at its MBEC
# Method: Determining rapid biofilm eradication by tetrasodium EDTA, ethanol, and chlorhexidine HCl alone and in combination was performed. After biofilm formation, control pegs (n=6) were removed and analyzed to determine the starting biofilm cell numbers via the drop dilution method. The 48-h old biofilms on the pegs were exposed to different concentrations of test antimicrobials, dissolved in an appropriate growth medium, for two h to evaluate their efficacy alone and in combination. […] Following treatment, pegs were washed twice with sterile PBS, and the biofilm cells were dislodged into recovery medium and enumerated as described above.
# The method for rapid biofilm eradication ability of test antimicrobials alone and in combination against 48-h-old biofilms within two h exposure time included (1) choosing different concentrations of test antimicrobials to assess their potency in eradicating preformed biofilms of study organisms within two h. Then (2) the quantitative recovery from biofilms following exposure to the antimicrobial solutions for bacterial strains (FIGS. 4A-4C) and fungal strains (FIG. 5) was evaluated.
# [3] = tested on: Staphylococcus epidermidis ON170; assay: Checkerboard titration, FICI; type: cell-based; conditions: S. epidermidis ON170; EDTA + ethanol checkerboard
# Method: as §1
# [4] = tested on: Pseudomonas aeruginosa SK1; assay: Checkerboard titration, FICI; type: cell-based; conditions: P. aeruginosa SK1; EDTA + ethanol checkerboard
# Method: as §1
# [5] = tested on: Proteus mirabilis ON153; assay: Checkerboard titration, FICI; type: cell-based; conditions: P. mirabilis ON153; EDTA + ethanol checkerboard
# Method: as §1
# [6] = tested on: Escherichia coli ON29; assay: Checkerboard titration, FICI; type: cell-based; conditions: E. coli ON29; EDTA + ethanol checkerboard
# Method: as §1
# [7] = tested on: Candida albicans SK4b; assay: Checkerboard titration, FICI; type: cell-based; conditions: C. albicans SK4b; EDTA + ethanol checkerboard
# Method: as §1
# [8] = tested on: Serratia marcescens SK2; assay: Checkerboard titration, FICI; type: cell-based; conditions: S. marcescens SK2; EDTA + ethanol checkerboard
# Method: as §1
# [9] = tested on: Staphylococcus aureus ON89; assay: Checkerboard titration, FICI; type: cell-based; conditions: S. aureus ON89; EDTA + ethanol checkerboard
# Method: as §1
# [10] = tested on: Stenotrophomonas maltophilia ON17; assay: Checkerboard titration, FICI; type: cell-based; conditions: S. maltophilia ON17; EDTA + ethanol checkerboard
# Method: as §1
# [11] = tested on: 48-h-old biofilms of bacterial and fungal strains; assay: MBEC assay, summary, 24 h exposure of 48-h-old biofilms; type: cell-based
# Method: A biofilm cultivation cell composition was provided. This fifth composition was created using an MBEC Assay® biofilm inoculator, consisting of a polystyrene lid with 96 downward-protruding pegs and a corresponding base used to grow biofilms. A standardized inoculum was diluted in an appropriate biofilm growth medium to achieve a viable cell count of 1.5×10^6 CFU/mL of bacterial cells or 5×10^5 CFU/mL of fungal cells. Then, 150 μL of this inoculum was transferred into each appropriate well, and the peg lids were inserted into the microtiter plates. The plates were sealed with Parafilm and were incubated at optimum temperature for 48 h with slight rocking for bacteria and shaking at 200 rpm for fungal strains. After incubation, the peg lid was removed from the base and rinsed twice with sterile phosphate-buffered saline (PBS) for 2 min to remove loosely attached non-sessile cells. Before the antimicrobial challenge, the pegs in column 1 (n=8) were considered the biofilm growth control; these pegs were removed from the lids, placed into 200 μL of recovery medium, and analyzed for starting biofilm cell numbers as described below. […] After the antimicrobial challenge, the pegs were rinsed twice with sterile PBS for 2 min and placed into a new 96-well plate containing 200 μL of recovery medium. The recovery plates were sealed with Parafilm, and biofilm cells were dislodged from the pegs by sonication for 30 min with a Branson 3510 bath sonicator. The biofilm cells in the recovery medium were serially diluted, and a drop dilution assay was performed to enumerate the viable cells. MBEC values were determined as the minimum concentration of antimicrobials that yielded a viable cell count at or lower than the 125 CFU/mL detection limit.
# [12] = tested on: C. albicans ON47; assay: Checkerboard titration, FICI; type: cell-based, Candida albicans; conditions: EDTA + ethanol checkerboard
# Method: as §1
# [13] = tested on: MRSA ON184; assay: Checkerboard titration, FICI; type: cell-based, Staphylococcus aureus; conditions: EDTA + ethanol checkerboard
# Method: as §1
# [14] = tested on: S. epidermidis SK9; assay: Checkerboard titration, FICI; type: cell-based, Staphylococcus epidermidis; conditions: EDTA + ethanol checkerboard
# Method: as §1
compound,measurement,setting,value
"CCO [Ethanol, ethanol, reference compound]",Inhibitory concentration in combination,[1],6.25 % w/v
same,Eradication of preformed biofilms after 2 h of exposure,[2],failed to eradicate
same,Inhibitory concentration in combination,[3],0.4 % w/v
same,Inhibitory concentration in combination,[4],3.125 % w/v
same,Inhibitory concentration in combination,[5],1.6 % w/v
same,Inhibitory concentration in combination,[6],3.125 % w/v
same,Inhibitory concentration in combination,[7],1.6 % w/v
same,Inhibitory concentration in combination,[8],3.125 % w/v
same,Inhibitory concentration in combination,[9],0.4 % w/v
same,Inhibitory concentration in combination,[10],0.4 % w/v
same,Concentration alone able to eradicate all established biofilms following 24 h of treatment,[11],5%
same,Inhibitory concentration in combination,[12],0.4 % w/v
same,Inhibitory concentration in combination,[13],0.4 % w/v
same,Inhibitory concentration in combination,[14],0.4 % w/v
